Where two headings read alike, the source gives them in different places.
Molecular target: human PDHK2 (hPDHK2) (Homo sapiens (Human), UniProt Q15119)
Assay: Inhibitory action of PDHK activity in vitro (kinase reaction, residual PDH activity measured)
Assay type: biochemical
[1] = PDHK inhibitory activity, class symbol of IC50
[2] = read-out: PDHK inhibitory activity IC50
[3] = PDHK inhibitory activity (class symbol)
[4] = PDHK inhibitory activity IC50 (μmol/L)

IC50 [4] [nM]	Structure (SMILES)	IC50 [1] [nM]	IC50 [2] [nM]	IC50 [3] [nM]	IC50 (class symbol of IC50, read-out: PDHK inhibitory activity) [nM]
	O=C(c1cc(-c2cncnc2)c2c(c1)C(O)(C(F)(F)F)c1ccccc1-2)N1CCCC1 (centres unmarked) [compound 370]	100 to 1000	114		
	NC(=O)COC1CN(C(=O)c2cc(Cl)c3c(c2)C(O)(C(F)(F)F)c2ccccc2-3)C1 (centres unmarked) [compound 349]	100 to 1000	126		
	CC(=O)c1cc(-c2cnn(C)c2)cc2c1-c1ccccc1C2(O)C(F)(F)F (centres unmarked) [compound 596]	< 100	41		
	CC(C)(O)C(C)(C)n1cc(-c2cc(F)cc3c2-c2ccccc2C3(O)C(F)(F)F)cn1 (single isomer, unassigned) [compound 687]		51	< 100	
	Cn1cc(-c2cc(O)cc3c2-c2ccccc2C3(O)C(F)(F)F)cn1 (centres unmarked) [compound 564]	100 to 1000	105		
	OC1(C(F)(F)F)c2ccccc2-c2ccc(Oc3ccccc3)cc21 (centres unmarked) [compound 187]	> 1000	2480		
	NC(=O)c1cccc(-c2ccc3c(c2)C(O)(C(F)(F)F)c2ccccc2-3)c1 (centres unmarked) [compound 156]	100 to 1000	464		
	Cn1cc(-c2cc(OCC(N)=O)cc3c2-c2ccccc2C3(O)C(F)(F)F)cn1 (single isomer, unassigned) [compound 467]	< 100	18		
	OC1(C(F)(F)F)c2ccccc2-c2c(-c3ccncc3)cccc21 (centres unmarked) [compound 139]	> 1000	> 10000		
	Cc1cc(-c2cnn(CC(N)=O)c2)c2c(c1)C(O)(C(F)(F)F)c1ccccc1-2 (centres unmarked) [compound 507]	< 100	26		
	O=C(COc1ccc2c(c1)C(O)(C(F)(F)F)c1ccccc1-2)N(CCO)CCO (centres unmarked) [compound 400]	> 1000	7080		
	CC(=O)NCCCOc1ccc2c(c1)C(O)(C(F)(F)F)c1ccccc1-2 (centres unmarked) [compound 340]	> 1000	1590		
	COc1cc(C(N)=O)c2c(c1)C(O)(C(F)(F)F)c1ccccc1-2 (centres unmarked) [compound 626]		674	100 to 1000	
	NC(=O)COc1cc(-c2cncnc2)c2c(c1)C(O)(C(F)(F)F)c1ccccc1-2 (centres unmarked) [compound 363]	< 100	47		
	CCCOC1CN(C(=O)c2ccc3c(c2)C(O)(C(F)(F)F)c2ccccc2-3)C1 (centres unmarked) [compound 105]	100 to 1000	259		
	CON(C)C(=O)c1cccc2c1-c1ccccc1C2(O)C(F)(F)F (centres unmarked) [compound 65]	> 1000	> 100000		
	CN(C)CCOc1ccc2c(c1)C(O)(C(F)(F)F)c1ccccc1-2 (centres unmarked) [compound 322]	> 1000	2500		
	O=C(O)c1cc(-c2cncnc2)c2c(c1)C(O)(C(F)(F)F)c1ccccc1-2 (centres unmarked) [compound 367]		> 1000		> 1000
	O=C(c1ccc2c(c1)C(O)(C(F)(F)F)c1ccccc1-2)N1CC(C(=O)N2CCCC2)C1 (centres unmarked) [compound 201]	100 to 1000	162		
	CC(=O)N(C)CCOc1cnc2c(c1)C(O)(C(F)(F)F)c1ccccc1-2 (centres unmarked) [compound 398]	100 to 1000	119		

IC50 [4] [nM]	Structure (SMILES)	IC50 [1] [nM]	IC50 [2] [nM]	IC50 [3] [nM]	IC50 (class symbol of IC50, read-out: PDHK inhibitory activity) [nM]
15	CNC(=O)Cn1cc(-c2cc(C)cc3c2-c2ccccc2[C@]3(O)C(F)(F)F)cn1 (stereo in doubt) [compound 533]	< 100			
	CC(C)Cn1cc(-c2cc(CO)c3c(c2)C(O)(C(F)(F)F)c2ccccc2-3)cn1 (centres unmarked) [compound 649]		37	< 100	
	OCCCOc1ccc2c(c1)C(O)(C(F)(F)F)c1ccccc1-2 (centres unmarked) [compound 284]	> 1000	1170		
	NC(=O)c1cc(Cl)cc2c1-c1ccccc1C2(O)C(F)(F)F (centres unmarked) [compound 636]		239	100 to 1000	
	OC1(C(F)(F)F)c2ccccc2-c2c(-c3cccnc3)cccc21 (centres unmarked) [compound 146]	100 to 1000	213		
	CC(CCOc1cc(-c2cnn(C)c2)c2c(c1)C(O)(C(F)(F)F)c1ccccc1-2)C(=O)O (single isomer, unassigned) [compound 577]	< 100	23		
	NC(=O)c1ccc(-c2ccc3c(c2)C(O)(C(F)(F)F)c2ccccc2-3)cc1Cl (centres unmarked) [compound 239]	100 to 1000	178		
	CC(=O)c1ccc2c(c1)C(O)(C(F)(F)F)c1ccccc1-2 (centres unmarked) [compound 76]	> 1000	1750		
	Cc1cccc2c1-c1ncccc1C2(O)C(F)(F)F (centres unmarked) [compound 15]	> 1000	16300		
	COC(=O)COc1cc(Br)c2c(c1)C(O)(C(F)(F)F)c1ccccc1-2 (single isomer, unassigned) [compound 452]	> 1000	2720		
	CN(CCOc1cc(-c2cncnc2)c2c(c1)C(O)(C(F)(F)F)c1ccccc1-2)C(=O)CO (centres unmarked) [compound 424]	< 100	23		
	Cn1cc(-c2cc(C(=O)N3CCC[C@H]3CO)cc3c2-c2ccccc2C3(O)C(F)(F)F)cn1 (some centres unmarked) [compound 393]	100 to 1000	176		
	OC1(C(F)(F)F)c2ccccc2-c2ccc(OCc3cccs3)cc21 (centres unmarked) [compound 261]	> 1000	1400		
	CC(C)(O)Cn1cc(-c2cc(CO)c3c(c2)C(O)(C(F)(F)F)c2ccccc2-3)cn1 (centres unmarked) [compound 661]		59	< 100	
19	Cc1cc(-c2cnn(C(CO)(CO)CO)c2)c2c(c1)[C@@](O)(C(F)(F)F)c1ccccc1-2 [compound 707, (+)-2-hydroxymethyl-2-[4-(9-hydroxy-2-methyl-9-trifluoromethyl-9H-fluoren-4-yl)-pyrazol-1-yl]-propane-1,3-diol]			< 100	
	OCC(CO)n1cc(-c2cc(F)cc3c2-c2ccccc2C3(O)C(F)(F)F)cn1 (single isomer, unassigned; (+)) [compound 595, (+)-2-[4-(2-fluoro-9-hydroxy-9-trifluoromethyl-9H-fluoren-4-yl)-pyrazol-1-yl]-propane-1,3-diol]	< 100	22		
	NC(=O)CCn1cc(-c2cc(Cl)c3c(c2)C(O)(C(F)(F)F)c2ccccc2-3)cn1 (centres unmarked) [compound 521]	< 100	36		
	Cc1noc(-c2cccc3c2-c2ccccc2C3(O)C(F)(F)F)n1 (centres unmarked) [compound 142]	100 to 1000	543		
	O=C(COc1ccc2c(c1)C(O)(C(F)(F)F)c1ccccc1-2)N1CCC(O)CC1 (centres unmarked) [compound 396]	100 to 1000	627		
	CNC(=O)COC1CN(C(=O)c2ccc3c(c2)C(O)(C(F)(F)F)c2ccccc2-3)C1 (centres unmarked) [compound 117]	100 to 1000	909		

— patent US8871934B2, “Fluorene compound and pharmaceutical use thereof” (Japan Tobacco Inc., priority 2008, dated 2014)
